Measured values from publication PMC9386913 (Arthritis Research & Therapy, 2022).

How the values were obtained:
LPS-induced TNF = system: LPS-induced TNF; set-up: method as in PMID 29549113; settings: mouse model of NOMID, up to 4 weeks after dosing; cited from earlier work
TNF = system: TNF; set-up: method as in PMID 26904383; settings: similar assay and clinical study design; no reference printed, BCT197 paper is ref 53; cited from earlier work
THP-1 cells = experiment: In vitro tachyphylaxis model: daily treatment of THP-1 cells, LPS-stimulated TNF; settings: up to 14 days, 0.1 or 1 μM CC-99677 or 1 μM p38 inhibitors
[1] = system: c-Jun N-terminal kinase (JNK); settings: THP-1 cells, macrophages, and synoviocytes; cited from earlier work

## Cc1cnc(-c2ccnc(C(C)(C)O)n2)cc1-n1c(C)cc(OCc2ncc(F)cc2F)c(Cl)c1=O [ATI-450]
LPS-induced TNF
  Inhibition of LPS-induced TNF: showed inhibition of LPS-induced TNF for up to 4 weeks after dosing

## Cc1ccc(C(=O)NC2CC2)cc1-n1ncc(C(=O)c2cccc(C#N)c2)c1N [BCT197]
TNF
  Sustained TNF inhibition over treatment period: loss of effect

## Cc1ccc(-n2nc(C(C)(C)C)cc2NC(=O)Nc2ccc(OCCN3CCOCC3)c3ccccc23)cc1 [BIRB-796]
THP-1 cells
  LPS-stimulated TNF production under continued daily treatment: beginning on day 9, loss of TNF inhibitory effect

## CCCNC(=O)c1cn2ncnc(Nc3cc(C(=O)NC4CC4)ccc3C)c2c1C [BMS-582949]
THP-1 cells
  LPS-stimulated TNF production under continued daily treatment: beginning on day 9, loss of TNF inhibitory effect

## O=C(CO)N1CCC(c2[nH]nc(-c3ccc(Cl)cc3)c2-c2ccncn2)CC1 [CDD-111]
LPS-induced TNF
  Inhibition of LPS-induced TNF: did not

## C[S+]([O-])c1ccc(-c2nc(-c3ccncc3)c(-c3ccc(F)cc3)[nH]2)cc1 (centres unmarked) [SB203580]
[1]
  Activation of c-Jun N-terminal kinase (JNK) upon treatment: activation of c-Jun N-terminal kinase (JNK)

## C[C@@H]1CN(Cc2ccc(F)cc2)[C@@H](C)CN1C(=O)c1cc2c(C(=O)C(=O)N(C)C)cn(C)c2cc1Cl [SCIO-469]
THP-1 cells
  LPS-stimulated TNF production under continued daily treatment: beginning on day 9, loss of TNF inhibitory effect

## O=c1ncn2nc(Sc3ccc(F)cc3F)ccc2c1-c1c(Cl)cccc1Cl [VX-745]
[1]
  Activation of c-Jun N-terminal kinase (JNK) upon treatment: activation of c-Jun N-terminal kinase (JNK)
